According to US7863449B2, “Modulators of muscarinic receptors” (Vertex Pharmaceuticals Incorporated, priority 2004, dated 2011):

Legend:
M1 muscarinic receptor = target: T1, M1 muscarinic receptor (Homo sapiens, UniProt P11229); assay: Functional mobilization of intracellular calcium (FLIPR), M1-CHO cells; assay type: cell-based; details: for Emax: 100% efficacy is the maximum response obtained using Carbachol as a control; for M1 Activity: M1-CHO cells, FLIPR calcium mobilization
T1 construct: expressed in transfected cells; host or cells: CHO (M1-CHO)
T1 sequence (P11229 1-460): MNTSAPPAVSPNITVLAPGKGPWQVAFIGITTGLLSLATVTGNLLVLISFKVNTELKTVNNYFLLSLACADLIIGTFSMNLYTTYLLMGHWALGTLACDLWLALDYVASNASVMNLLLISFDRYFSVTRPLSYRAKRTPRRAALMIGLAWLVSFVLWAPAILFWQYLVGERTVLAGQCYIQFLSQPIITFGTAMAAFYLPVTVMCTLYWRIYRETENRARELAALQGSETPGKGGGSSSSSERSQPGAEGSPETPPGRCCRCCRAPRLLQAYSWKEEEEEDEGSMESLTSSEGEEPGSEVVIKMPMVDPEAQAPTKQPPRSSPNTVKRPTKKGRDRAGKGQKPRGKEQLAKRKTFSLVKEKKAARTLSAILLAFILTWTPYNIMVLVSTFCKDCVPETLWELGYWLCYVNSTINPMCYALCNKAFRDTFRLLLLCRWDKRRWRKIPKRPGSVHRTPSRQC
Method in brief: (§1)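 Calcium flux recorded 60 s (ex 488, em 540 nm) in dye-loaded M1- or M4-CHO cells in pH 7.4 buffer with 1 mM probenecid. Inhibition measured against carbachol EC80 after 15 min compound pre-incubation or co-addition; agonism measured by compound addition alone. Final DMSO 0.5%.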

M4 muscarinic receptor = target: T2, M4 muscarinic receptor (Homo sapiens, UniProt P08173); assay: Functional mobilization of intracellular calcium (FLIPR), M4-CHO cells; assay type: cell-based; details: for Emax: 100% efficacy is the maximum response obtained using Carbachol as a control; for M4 Activity: M4-CHO cells, FLIPR calcium mobilization
T2 construct: expressed in transfected cells; host or cells: CHO (M4-CHO)
T2 sequence (P08173 1-479): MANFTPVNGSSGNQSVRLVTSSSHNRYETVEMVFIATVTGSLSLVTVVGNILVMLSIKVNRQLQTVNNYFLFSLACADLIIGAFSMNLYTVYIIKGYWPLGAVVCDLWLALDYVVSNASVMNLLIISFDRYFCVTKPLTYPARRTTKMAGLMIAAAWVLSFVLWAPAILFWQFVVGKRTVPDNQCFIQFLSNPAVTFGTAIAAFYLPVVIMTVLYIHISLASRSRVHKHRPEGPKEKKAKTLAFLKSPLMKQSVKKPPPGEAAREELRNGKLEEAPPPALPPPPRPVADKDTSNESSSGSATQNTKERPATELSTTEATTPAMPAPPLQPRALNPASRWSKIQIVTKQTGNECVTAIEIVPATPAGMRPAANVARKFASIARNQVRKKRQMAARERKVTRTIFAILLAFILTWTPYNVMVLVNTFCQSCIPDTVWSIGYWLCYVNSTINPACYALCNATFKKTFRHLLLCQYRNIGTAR
Method in brief: as §1

Row | Compound | Emax (M1 muscarinic receptor) [%] | M1 Activity (M1 muscarinic receptor) | Emax (M4 muscarinic receptor) [%] | M4 Activity (M4 muscarinic receptor)
1 | CCOC(=O)N1CCC(N2CCC3(CC2)OC(=O)c2cc(Cl)ccc23)CC1 [compound 230] | 25 to 100 | +++ (activity was measured to be less than 1.0 μM) | 25 to 100 | ++ (activity was measured to be from 1.0 μM to 5.0 μM)
2 | CCOC(=O)N1C2CCC1CC(N1CCC3(CC1)CN(C(=O)Nc1c(C)noc1C)Cc1ccccc13)C2.Cl (stereo not shown) [compound 233, Ethyl 3-(2-(3,5-dimethylisoxazol-4-ylcarbamoyl)-2,3-dihydro-1H -spiro[isoquinoline-4,4′-piperidine]-1′-yl)-8-azabicyclo[3.2.1]octane-8-carboxylate hydrochloride] | 25 to 100 | +++ (activity was measured to be less than 1.0 μM) | 25 to 100 | +++ (activity was measured to be less than 1.0 μM)
3 | CCOC(=O)N1CCC(N2CCC3(CC2)CN(C(=O)OC)Cc2ccccc23)CC1 [compound 240] | 25 to 100 | +++ (activity was measured to be less than 1.0 μM) | 25 to 100 | +++ (activity was measured to be less than 1.0 μM)
4 | CC(C)OC(=O)N1C2CCC1CC(N1CCC3(CC1)CN(S(=O)(=O)N(C)C)Cc1ccccc13)C2 (stereo not shown) [compound 241] | 25 to 100 | +++ (activity was measured to be less than 1.0 μM) | 25 to 100 | +++ (activity was measured to be less than 1.0 μM)
5 | CCOC(=O)N1CCC(N2CCC3(CC2)CN(C(=O)N(CC)CC)Cc2ccccc23)CC1 [compound 242] | 25 to 100 | +++ (activity was measured to be less than 1.0 μM) | < 25 | + (activity was measured to be greater than 5.0 μM)
6 | CC(=O)N1Cc2ccccc2C2(CCN(CC3CCN(C(=O)O[C@H]4CCOC4)CC3)CC2)C1 [compound 243] | < 25 | + (activity was measured to be greater than 5.0 μM) | < 25 | + (activity was measured to be greater than 5.0 μM)
7 | CCOC(=O)N1C2CCC1CC(N1CCC3(CC1)CN(C(=O)C1(C)CC1)Cc1ccccc13)C2 (stereo not shown) [compound 244] | 25 to 100 | +++ (activity was measured to be less than 1.0 μM) | 25 to 100 | +++ (activity was measured to be less than 1.0 μM)
8 | CCOC(=O)N1C2CCC1CC(N1CCC3(CC1)CN(S(=O)(=O)c1ccc(-c4ccccc4)cc1)Cc1ccccc13)C2 (stereo not shown) [compound 245] | 25 to 100 | ++ (activity was measured to be from 1.0 μM to 5.0 μM) | 25 to 100 | ++ (activity was measured to be from 1.0 μM to 5.0 μM)
9 | CCOC(=O)N1C2CCC1CC(N1CCC3(CC1)CN(S(=O)(=O)c1c(C)noc1C)Cc1ccccc13)C2 (stereo not shown) [compound 246] | 25 to 100 | +++ (activity was measured to be less than 1.0 μM) | > 100 | +++ (activity was measured to be less than 1.0 μM)
10 | CC(=O)N1Cc2ccccc2C2(CCN(Cc3cccc(F)c3)CC2)C1 [compound 247] | < 25 | + (activity was measured to be greater than 5.0 μM) | < 25 | + (activity was measured to be greater than 5.0 μM)
11 | COCCOC(=O)N1C2CCC1CC(N1CCC3(CC1)CN(S(=O)(=O)N(C)C)Cc1ccccc13)C2 (stereo not shown) [compound 249] | 25 to 100 | +++ (activity was measured to be less than 1.0 μM) | 25 to 100 | +++ (activity was measured to be less than 1.0 μM)
12 | CCOC(=O)N1CCC(N2CCC3(CC2)CN(C(=O)C2CCC2)Cc2ccccc23)CC1 [compound 250] | 25 to 100 | +++ (activity was measured to be less than 1.0 μM) | 25 to 100 | +++ (activity was measured to be less than 1.0 μM)
13 | CCOC(=O)N1C2CCC1CC(N1CCC3(CC1)CN(S(=O)(=O)c1ccc(C(F)(F)F)cc1)Cc1ccccc13)C2 (stereo not shown) [compound 251] | 25 to 100 | +++ (activity was measured to be less than 1.0 μM) | 25 to 100 | +++ (activity was measured to be less than 1.0 μM)
14 | CC(=O)N1Cc2ccccc2C2(CCN(CC3CCN(C(=O)OC4CCCC4)CC3)CC2)C1 [compound 252] | < 25 | + (activity was measured to be greater than 5.0 μM) | < 25 | + (activity was measured to be greater than 5.0 μM)
15 | CCOC(=O)N1C2CCC1CC(N1CCC3(CC1)CN(S(=O)(=O)c1cccc(Cl)c1)Cc1ccccc13)C2 (stereo not shown) [compound 253] | 25 to 100 | +++ (activity was measured to be less than 1.0 μM) | 25 to 100 | +++ (activity was measured to be less than 1.0 μM)
16 | CCCOC(=O)N1Cc2ccccc2C2(CCN(C3CCN(C(=O)OCC)CC3)CC2)C1 [compound 254] | 25 to 100 | +++ (activity was measured to be less than 1.0 μM) | 25 to 100 | +++ (activity was measured to be less than 1.0 μM)
17 | CCOCCN1CCC2(CC1)CN(C(C)=O)Cc1ccccc12 [compound 256] | < 25 | – | < 25 | –
18 | CC(=O)N1Cc2ccccc2C2(CCN(C3CCN(C(=O)OC4CCC4)CC3)CC2)C1 [compound 258] | 25 to 100 | +++ (activity was measured to be less than 1.0 μM) | 25 to 100 | +++ (activity was measured to be less than 1.0 μM)
19 | CCOC(=O)N1CCC(N2CCC3(CC2)CN(C(=O)c2nc(C)oc2C)Cc2ccccc23)CC1 [compound 261] | 25 to 100 | +++ (activity was measured to be less than 1.0 μM) | 25 to 100 | +++ (activity was measured to be less than 1.0 μM)
20 | CCOC(=O)N1CCC(CN2CCC3(CC2)CN(C(=O)OC2CCCC2)Cc2ccccc23)CC1 [compound 263] | 25 to 100 | +++ (activity was measured to be less than 1.0 μM) | 25 to 100 | +++ (activity was measured to be less than 1.0 μM)
21 | CC(=O)N1Cc2ccccc2C2(CCN(CC3CCCOC3)CC2)C1 (stereo not shown) [compound 266] | < 25 | + (activity was measured to be greater than 5.0 μM) | < 25 | + (activity was measured to be greater than 5.0 μM)
22 | O=C1NC2(CCN(CC3CC4C=CC3C4)CC2)c2ccccc21 (stereo not shown) [compound 267, 1′-(bicyclo[2.2.1]hept-5-en-2-ylmethyl)spiro[isoindoline-1,4′-piperidin]-3-one] | 25 to 100 | ++ (activity was measured to be from 1.0 μM to 5.0 μM) | 25 to 100 | ++ (activity was measured to be from 1.0 μM to 5.0 μM)
23 | CC(=O)N1Cc2ccccc2C2(CCN(C3CCSCC3)CC2)C1 [compound 268] | 25 to 100 | ++ (activity was measured to be from 1.0 μM to 5.0 μM) | 25 to 100 | ++ (activity was measured to be from 1.0 μM to 5.0 μM)
24 | CCOC(=O)N1CCC(CN2CCC3(CC2)CN(C(=O)C(C)C)Cc2ccccc23)CC1 [compound 270] | 25 to 100 | +++ (activity was measured to be less than 1.0 μM) | 25 to 100 | +++ (activity was measured to be less than 1.0 μM)
